Measurements as given in US8247565B2, “Sirtuin modulating compounds” (Sirtris Pharmaceuticals, Inc., priority 2007, dated 2012).
Where a name gives a salt, the structure may show the parent alone. One block for each compound: values may come before it.

Key:
[1] = test system: diet induced obesity model (DIO); experiment: Blood glucose in diet induced obesity (DIO) mouse model; type: in vivo, C57BL/6 male mice; details: DIO mice; for blood glucose vs vehicle: from week 2 onwards (FIGS. 3-5); for week 4 fed glucose test vs vehicle: blood glucose remained lower than vehicle
Text: (§1) The purpose of this example was to compare the efficacy of Compound 1 in salt and free base formulations in two different mouse models of diabetes, a diet induced obesity model (DIO) and the Ob/ob mouse. Blood glucose was the main determinant through the experiment of efficacy.
For the diet induced obesity model, six week old C57BL/6 male mice (Charles River Labs) were fed a high fat diet (60% calories from fat; Research Diets) for approximately 6 weeks until their body weight reached approximately 40 g. Test compounds were administered daily via oral gavage at the indicated doses. The vehicle used was 2% HPMC and 0.2% DOSS. Individual mouse body weights were measured twice weekly. Every 2 weeks throughout the study, mice from each group were bled via the tail vein for determination of blood glucose. Statistical analysis was completed using the JMP program (Version 6). Data were analyzed by a one way ANOVA with comparison to control using a Dunnett's Test. A p value <0.05 indicated a significant difference between groups.
Compound 1 in the free base form was then tested in the DIO model.

Ob/ob mouse = experiment: Blood glucose in Ob/ob mouse model; type: in vivo; details: ob/ob mice, free base 100 mg/kg
Text: as §1
Ob/ob mice are genetically manipulated knockout mice that lack leptin, an important satiety protein that neurologically signals the end of hunger. The leptin mutation is homozygous and a heterozygous strain is included as a control (Ob/+); this group should not show increased weight or blood glucose, aside from the normal effects of being on a high fat diet.
During week 1, there is already a decrease in blood glucose of almost 60 mg/dL from the vehicle group. This trend continued for the fasted glucose at week 2 (FIG. 7) as the Compound 1 group had 158.3 mg/dL glucose compared to 285.3 mg/dL glucose in the vehicle group.

[2] = Salt/free base screening by DSC and TGA (physical stability, polymorphs); type: physicochemical; details: for polymorphism / phase changes on heating (DSC, TGA): thermal range evaluated by DSC/TGA (FIGS. 1, 2)
Experimental: Eight acceptable (Regulatory and pKa) salts were made of Compound 1, namely with hydrochloric acid, sulfuric acid, methanesulfonic acid, maleic acid, phosphoric acid, L-tartaric acid, citric acid, and malic acid. The resulting salts or the free base were then screened on: • 1) Processing, morphology, polymorphs; • 2) Crystal shape, single stable polymorph; • 3) Physical stability; • 4) Open dish accelerated stability (40° C./75% RH); and • 5) Biorelevant dissolution.
Since no other thermal transitions are observed in the DSC or TGA results, it appears Compound 1 exists only as a single phase (i.e. no polymorphs) over the thermal range evaluated.
Since the polymorphic transitions can have significant effects on dissolution and bioavailability of the drug substance, it is practical to select forms of the drug substance that minimize or eliminate the potential for phase transitions.

- polymorphism / phase changes on heating (DSC, TGA) [2]: no polymorphs
SMILES: Cc1nc(-c2cccnc2)sc1C(=O)Nc1ccccc1-c1cn2c(CN3CCOCC3)csc2n1 [Compound 1, 4-methyl-N-(2-(3-(morpholinomethyl)imidazo[2,1-b]thiazol-6-yl)phenyl)-2-(pyridin-3-yl)thiazole-5-carboxamide]
- blood glucose vs vehicle ([1]; 100 mg/kg/day oral gavage): significant reductions in blood glucose
- blood glucose vs vehicle group at weeks 2 and 3 ([1]; free base 100 mg/kg/day, weeks 2 (fed) and 3 (fasted), p value less than 0.01): significant decrease
- decrease in blood glucose from the vehicle group (Ob/ob mouse; week 1 (FIG. 6)): ~60 mg/dL
- fasted blood glucose (Ob/ob mouse; week 2 fasted (FIG. 7), vehicle group 285.3 mg/dL, p less than 0.0001): 158.3 mg/dL
- blood glucose relative to vehicle groups (Ob/ob mouse; week 3 fed (FIG. 8)): significant (p<0.01) decrease

SMILES: O=C(Nc1ccccc1-c1cn2c(CN3CCNCC3)csc2n1)c1cnc2ccccc2n1 [Compound 2, N-(2-(3-(piperazin-1-ylmethyl)imidazo[2,1-b]thiazol-6-yl)phenyl)quinoxaline-2-carboxamide]
- blood glucose vs vehicle ([1]; 100 mg/kg/day oral gavage): significant reductions in blood glucose
- week 4 fed glucose test vs vehicle ([1]; 100 mg/kg/day): significance was lost

- hygroscopicity ([2]; TGA weight loss on heating attributed to water loss): hygroscopic
- polymorphism / phase changes on heating (DSC, TGA) [2]: transitions between polymorphic forms
SMILES: Cc1nc(-c2cccnc2)sc1C(=O)Nc1ccccc1-c1cn2c(CN3CCOCC3)csc2n1 [HCl salt form of Compound 1]

SMILES: CN(C)C(=N)N=C(N)N [metformin, reference compound]
- blood glucose vs vehicle ([1]; 400 mg/kg/day oral gavage): significant reductions in blood glucose

SMILES: Oc1ccc(C=Cc2cc(O)cc(O)c2)cc1 [resveratrol, reference compound]
- blood glucose vs vehicle ([1]; 1000 mg/kg/day oral gavage): significant reductions in blood glucose
- week 4 fed glucose test vs vehicle ([1]; 1000 mg/kg/day): significance was lost
